Assay results published in ChEMBL document CHEMBL2346511, “Advances in the discovery of kinesin spindle protein (Eg5) inhibitors as antitumor agents” (Eur J Med Chem, 2013).
Blank lines part the entries; values can stand above or below the molecule they belong to.

Key:
[1] = target: T1, Kinesin-like protein KIF11 (Homo sapiens, UniProt P52732); experiment: Inhibition of Eg5 (unknown origin)
T1 sequence (P52732 whole entry): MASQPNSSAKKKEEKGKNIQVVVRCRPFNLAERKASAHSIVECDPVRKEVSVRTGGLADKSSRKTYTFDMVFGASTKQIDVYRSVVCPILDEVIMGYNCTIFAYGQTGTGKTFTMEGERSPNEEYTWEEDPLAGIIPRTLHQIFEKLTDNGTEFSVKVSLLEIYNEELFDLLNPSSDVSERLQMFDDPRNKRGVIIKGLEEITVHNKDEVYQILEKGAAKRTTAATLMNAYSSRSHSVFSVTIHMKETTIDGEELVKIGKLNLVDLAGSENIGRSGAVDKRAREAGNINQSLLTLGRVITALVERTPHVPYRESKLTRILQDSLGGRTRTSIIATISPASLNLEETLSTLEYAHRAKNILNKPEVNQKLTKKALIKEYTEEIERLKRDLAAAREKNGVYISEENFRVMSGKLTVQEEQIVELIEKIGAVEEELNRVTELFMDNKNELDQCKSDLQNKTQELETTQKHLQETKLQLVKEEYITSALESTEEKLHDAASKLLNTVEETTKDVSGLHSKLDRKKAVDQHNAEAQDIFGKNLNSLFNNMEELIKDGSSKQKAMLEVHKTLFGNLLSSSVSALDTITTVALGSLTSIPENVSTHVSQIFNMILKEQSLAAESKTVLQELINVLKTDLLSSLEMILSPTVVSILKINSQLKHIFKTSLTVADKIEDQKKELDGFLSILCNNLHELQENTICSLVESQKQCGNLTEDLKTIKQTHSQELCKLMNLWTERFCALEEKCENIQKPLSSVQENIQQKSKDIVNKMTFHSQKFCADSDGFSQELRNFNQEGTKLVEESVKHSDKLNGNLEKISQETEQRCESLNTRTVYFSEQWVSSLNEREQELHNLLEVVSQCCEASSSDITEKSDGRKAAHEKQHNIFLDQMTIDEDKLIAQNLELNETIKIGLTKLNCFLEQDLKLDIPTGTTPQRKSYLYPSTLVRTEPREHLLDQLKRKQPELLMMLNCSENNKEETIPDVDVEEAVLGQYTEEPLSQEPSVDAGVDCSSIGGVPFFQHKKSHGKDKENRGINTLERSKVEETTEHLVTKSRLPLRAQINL

[2] = Antiproliferative activity against human NCI60 cells
[3] = target: T1, Kinesin-like protein KIF11; experiment: Inhibition of Eg5 in human HCT116 cells assessed as inhibition of microtubule-induced ATPase activity after 18 hrs; assay type: cell-based, HCT-116
[4] = target: T1, Kinesin-like protein KIF11; experiment: Inhibition of human His-tagged Eg5 (1 to 368 amino acid residues) basal ATPase activity
[5] = target: T1, Kinesin-like protein KIF11; experiment: Inhibition of human recombinant Eg5 ATPase activity expressed in Escherichia coli after 30 mins by malachite green-based spectrophotometric analysis
[6] = target: T2, Kinesin-like protein KIF11 (Homo sapiens) (UniProt P52732); experiment: Ratio of monastrol IC50 to compound IC50 for Eg5 (unknown origin)
T2 sequence (whole entry): T1 sequence (P52732 whole entry)

[7] = target: T1, Kinesin-like protein KIF11; experiment: Inhibition of human Eg5 assessed as inhibition of microtubule-induced ATPase activity
[8] = target: T1, Kinesin-like protein KIF11; experiment: Inhibition of human Eg5 basal ATPase activity
[9] = system: Homo sapiens; experiment: Toxicity in cancer patient administered as infusion for 1 hr every 21 days; assay type: organism-based; details: in vivo, iv
[10] = Half life in cancer patient at 30 mg, iv administered as infusion for 1 hr on days 1, 8 and 15 measured after 28 days; details: human, in vivo
[11] = system: Homo sapiens; experiment: Toxicity in iv dosed cancer patient administered as infusion for 1 hr on days 1, 8 and 15 measured after 28 days; assay type: organism-based; details: in vivo, 672 h
[12] = system: Homo sapiens; experiment: Toxicity in acute myeloid leukemia patient administered as infusion for 1 hr on 3 consecutive days measured after 2 weeks; assay type: organism-based; details: in vivo, iv, 336 h
[13] = clinical; details: human, in vivo, iv, 16 mg/day
Description: Half life in acute myeloid leukemia patient at 16 mg/day administered as infusion for 1 hr on 3 consecutive days measured after 2 weeks

[14] = target: T1, Kinesin-like protein KIF11; experiment: Inhibition of Eg5 basal ATPase activity (unknown origin)
[15] = target: T1, Kinesin-like protein KIF11; experiment: Inhibition of Eg5 assessed as inhibition of microtubule-induced ATPase activity (unknown origin)
[16] = Half life in solid tumor patient at 7 mg/m2 administered as infusion for 1 hr per week for 3 weeks; assay type: ADME, organism-based; details: human, in vivo, iv
[17] = Antitumor activity against breast cancer in patients at 12 mg/m2 administered as 1 hr infusion on day 1 and 15 measured after 28 days; assay type: functional, Homo sapiens, Breast cancer cell
[18] = system: Homo sapiens; experiment: Toxicity in breast cancer patient administered as infusion for 1 hr on day 1 and 15 measured after 28 days; assay type: organism-based; details: in vivo, iv, 672 h
[19] = system: Homo sapiens; experiment: Toxicity in prostate cancer patient administered once every 3 weeks; assay type: organism-based, Prostate gland; details: in vivo, 504 h

Compound: N[C@@H](CSC(c1ccccc1)(c1ccccc1)c1ccccc1)C(=O)O [S-TRITYL-L-CYSTEINE]
GI50 [2]: 1300 nM

Compound: CC(=O)NC1=NN(C(C)=O)C(C)(c2ccccc2)S1 (centres undefined)
IC50 [3]: 1300 nM

Compound: CCC(c1nc2ccccc2n1Cc1ccccc1)N(CCCN(C)C)C(=O)c1ccc(Br)cc1 (centres undefined)
IC50 [1]: 40 nM

Compound: CC(C)(O)[C@@H]1C[C@@H](O)[C@]2(C)[C@H](CC[C@@]3(C)[C@H]2CC[C@H]2Cc4c([nH]c5ccccc45)[C@@]23C)O1 [TERPENDOLE E]
IC50 [7]: 23000 nM
IC50 [8]: 23000 nM

Compound: Cc1ccc(C(=O)N(CCCN)[C@@H](c2oc3cc(Cl)ccc3c(=O)c2Cc2ccccc2)C(C)C)cc1 [SB-743921]
MTD [9]: 4 mg/m2

Compound: Cc1ccc(C(=O)N(CCCN)C(c2nc3snc(C)c3c(=O)n2Cc2ccccc2)C(C)C)cc1 (single isomer, unassigned; (+)) [AZD-4877]
half-life at 672 h [10]: 16 h
MTD [11]: 30 mg
MTD [12]: 16 mg/day
half-life at 336 h [13]: 17 h

Compound: CC1(C)CCC[C@]2(C)O[C@H]3CC[C@@]4(C)[C@@H](CC[C@]5(C)[C@@H]4CC[C@]4(C)c6c(OS(=O)(=O)O)ccc(OS(=O)(=O)O)c6C[C@@H]54)[C@]3(C)CC[C@@H]12 [ADOCIASULFATE-2]
IC50 [14]: 3500 nM
IC50 [15]: 5300 nM

Compound: CON(C)C(=O)N1N=C(c2cc(F)ccc2F)S[C@@]1(CCCN)c1ccccc1 [FILANESIB]
IC50 [1]: 6 nM

Compound: CS(=O)(=O)O.Cc1ccc(C(=O)N(CCCN)[C@@H](c2nc3cc(Cl)ccc3c(=O)n2Cc2ccccc2)C(C)C)cc1 [ISPINESIB MESYLATE]
half-life [16]: 33 h
Activity [17]: 9%
MTD [18]: 12 mg/m2
MTD [19]: 18 mg/m2

Compound: Cc1cc2c(C(C)C)c(O)c(O)c(C=O)c2c(O)c1-c1c(C)cc2c(C(C)C)c(O)c(O)c(C=O)c2c1O [GOSSYPOL]
IC50 [5]: 10800 nM

Now from value to molecule:

IC50 [1]: 650 nM
Compound: O=C1[C@@H]2Cc3c([nH]c4ccccc34)[C@@H](c3cccc(O)c3)N2C(=O)N1Cc1ccccc1

IC50 [1]: 30000 nM
Compound: CCOC(=O)C1=C(C)NC(=S)NC1c1cccc(O)c1 (centres undefined) [MONASTROL]

IC50 [4]: 350 nM
Compound: O=C1CCCC2=C1[C@H](c1cc(O)ccc1Br)NC(=S)N2

IC50 [5]: 60 nM
Ratio IC50 [6]: > 100
Compound: Cc1ccc(C(=O)N2CCc3cc4c(cc3C2c2cccc(O)c2)OCO4)cc1 (centres undefined)

Ratio IC50 [6]: 10
Compound: O=C1CCCC2=C1[C@H](c1cccc(O)c1)NC(=S)N2

IC50 [5]: 40 nM
Ratio IC50 [6]: > 100
Compound: O=C(c1ccc(O)cc1)N1CCc2cc3c(cc2C1c1cccc(O)c1)OCO3 (centres undefined)

IC50 [5]: 20 nM
Ratio IC50 [6]: > 100
Compound: NCCC(=O)N1CCc2cc3c(cc2C1c1cccc(O)c1)OCO3 (centres undefined)

IC50 [5]: 100 nM
Compound: CC1=C(C(=O)Nc2ccc(Cl)cc2)C(c2ccccc2)C2=C(CC(C)(C)CC2=O)N1 (centres undefined)
